These results are taken from patent US20130059096A1, “METHODS AND COATINGS FOR TREATING BIOFILMS” (President and Fellows of Harvard College, priority 2010, published 2013).

In one experiment the test system is S. aureus (strain SCO1). Put plainly: Biofilm formation on polystyrene, crystal violet staining. In kind it is cell-based, Staphylococcus aureus. The procedure: Crystal violet staining Crystal violet staining was done as described previously (O'Toole et al., Mol. […] Wells were stained with 500 μl of 1.0% Crystal-violet dye, rinsed twice with 2 ml double-distilled water and thoroughly dried.
The effect of D-amino acids on biofilm formation by other bacteria was examined. The pathogenic bacterium Staphylococcus aureus forms biofilms on plastic surfaces (Otto, Curr. Top. Microbiol. Immunol. 322:207 (2008)), which can be detected by washing away unbound cells and staining the bound cells with crystal violet. […] Additionally added to the wells were no amino acids (untreated), D-tyrosine (50 μM) or the D-amino acid mixture ([…] each). Cells bound to the polystyrene were visualized by washing away unbound cells and then staining with crystal violet.
For experiments reported in Table 1, the organism/strain was S.a. Harvard SCO1, the culture medium was TSB and the cell inoculation was at 2×10^9 cfu. For experiments reported in Table 2, the organism/strain was […], the culture medium was M63 and the cell inoculation was at 1.5×10^9 cfu. Biofilm was visualized using the crystal violet method. The data is shown below in Tables 1 and 2:
For experiments reported in Tables 3 and 4, the organism/strain was S.a. Harvard SCO1, the culture medium was TSB and the cell inoculation was at 2×10^9 cfu. Biofilm was visualized using the crystal violet method.

Experiment [1] relates to Bacillus subtilis NCIB3610. Put plainly: Pellicle (biofilm) formation in liquid biofilm-inducing medium. In kind it is cell-based. Here is the method: Colony and pellicle formation. For colony formation on solid medium, cells were first grown to exponential growth phase in LB broth and 3 μl of culture were spotted onto solid MSgg medium containing 1.5% Bacto agar. The plates were incubated at 23° C. For pellicle formation in liquid medium, cells were grown to exponential phase and 6 μl of culture were mixed with 6 ml of medium in a 12-well plate (VWR). Plates were incubated at 23° C. Images of colonies and pellicles were taken using a SPOT camera (Diagnostic Instruments, USA).
Preparing conditioned medium. Cells were grown in LB medium to exponential phase. 0.1 ml of culture was added to 100 ml of MSgg medium and grown without shaking in a 500 ml beaker at 23° C. Next, pellicles and conditioned medium was collected by centrifugation at 8,000 rpm for 15 min. The conditioned medium (supernatant fluid) was removed and filtered through a 0.22 μm filter. The filtrates were stored at 4° C. For further purification the biofilm-inhibiting activity was fractionated on a C-18 Sep Pak cartridge using stepwise elution of 0% to 100% methanol with steps of 5%.
To investigate whether mature biofilms produce a factor that triggers biofilm disassembly, the effect of concentrated and partially purified extracts of conditioned medium on pellicle formation when added to fresh medium was assayed. To this end, conditioned medium from an eight-day-old culture was applied to a C18 Sep Pak column. Concentrated eluate from the column was then added to a freshly inoculated culture. […] Further purification of the factor was achieved by eluting the cartridge in step-wise fashion with increasing concentrations of methanol.
Next, the minimum concentration (MIC for Minimal Inhibitory Concentration) needed to prevent biofilm formation was determined.

The subject of a further experiment is Bacillus subtilis. The experiment in a line: Cell growth in MSgg medium with shaking. In kind it is cell-based. The settings on record: 3 μM.
A further experiment deals with P.a. Harvard PA14. Put plainly: Biofilm (colony architecture) formation on defined M63 medium. In kind it is cell-based, Pseudomonas aeruginosa. The settings on record: 500 μM. The source says:
Similarly to Bacillus subtilis, Pseudomonas aeruginosa forms a complex architecture on defined medium. These complex structures require the proper formation and assembly of the extra-cellular matrix. […] For these experiments, the organism/strain was P.a. Harvard PA14, the culture medium was M63 and the cell inoculation was at 1.5×10^9 cfu.

Another experiment has as its system Pseudomonas aeruginosa. Put plainly: Attached single cells in well plate, Syto-9 staining. In kind it is cell-based. The procedure: An alternative method to observe biofilm formation on a 6 well plate with or without D-amino acids and using Syto-9 staining was as follows: Pseudomonas aeruginosa biofilms were washed twice with PBS and then fixed for at least an hour in 5% Glutaraldehyde in PBS. The fixed biofilms were then rinsed once again with PBS and soaked in 0.1% v/v Triton X-100 in PBS (PBST) for 15 minutes. The solution was exchanged with 0.1 nM […] (Invitrogen) in cold PBST and gently rocked in the dark for at least 15 minutes. Fluorescence images of the biofilms were captured with a Leica DMRX compound microscope using a Xe lamp and a K3 Leica filtercube. […] The amount of attached single cells was quantified using image J. The decrease in the amount of cells attached to the epoxy surfaces soaked with D-aa compared with the L-aa control was substantially more.

Where [2] appears, read: Staphylococcus aureus, 24 h, read-out: % Inhibition relative to control (0%, <50%, 50-90%, >90%).

Turning to `N[C@H](Cc1ccc(O)cc1)C(=O)O` [D-tyrosine], the “Prevention of biofilm formation (FIG. 2E)” value with S. aureus (strain SCO1) (50 μM, 12-well polystyrene, 24 hours at 37° C., TSB with glucose (0.5%) and NaCl (3%)) was “highly effective in preventing biofilm formation”. Moreover, in the experiment with S. aureus (strain SCO1) (setting [2]), the inhibition at 0.1 µM was found to be 0%, the inhibition at 10 µM stood at 0%, the inhibition at 100 µM is over 90% and the inhibition at 500 µM was over 90%. Also, the “Effect on pellicle formation (FIG. 2A)” value in experiment [1] (3 μM, freshly inoculated culture, biofilm-inducing medium, 3 days) is recorded as “significant inhibition of biofilm growth”. In experiment [1] (FIG. 2B, complete inhibition of pellicle formation, mixture in equimolar amounts), the “minimum concentration (MIC / MBIC) needed to prevent biofilm formation” value is recorded as “about 100 nM”. In experiment [1] (summary statement, concentration not given), the “Biofilm-inhibition assay for B. subtilis” value is recorded as “significant inhibition of biofilm growth”. In the experiment with Bacillus subtilis, the “Cell growth (FIG. 8)” value was “substantially the same as the untreated sample”. Moreover, in the experiment on P.a. Harvard PA14, the “Biofilm formation on defined medium (FIG. 20)” value was “inhibited biofilm formation”. Also, in the experiment on Pseudomonas aeruginosa (Pseudomonas aeruginosa, 12 h, read-out: % Inhibition relative to control (0%, <50%, 50-90%, >90%)), the inhibition at 50 µM is over 90%. In addition, the “number of cells attached to the bottom of the biofilm plate (FIG. 21)” value in the experiment on Pseudomonas aeruginosa (concentration not given) is “dramatic decrease in the number of cells attached”.
